Data from patent US11072596B2, “Poly(ADP-ribose) polymerase inhibitor, preparation method and use” (SELECTION BIOSCIENCE LLC, priority 2017, dated 2021).

Tests used:
[1] = Pharmacokinetic study in rats
Protocol: SD rats were used as test animals, and the drug concentrations in plasma at different times after intravenous and intragastric administration of the compounds of examples were determined by LC/MS/MS method(s) to study the pharmacokinetics of the compound in the present disclosure in rats
Healthy adult male SD (Sprague-Dawley) rats, 3 animals per test compound, 6-9 weeks old, weighing 250±50 g, were purchased from Shanghai SLAC Laboratory Animal Co., Ltd.
The appropriate amount of sample was weighed out, 0.5% Methocel/2% tween 80 was added to the final volume, and 2 mg/mL was prepared for intragastric administration.
Each 3 male SD rats of each test compound were taken by intragastric administration at a dosage of 10 mg/kg after fasting overnight.
Blood samples of each animal were collected at different time points 0.083-24 h from jugular vein puncture after administration, K2-EDTA anticoagulation, centrifugation, and blood plasma were collected, frozen at −70° C. until LC/MS/MS analysis.

[2] = Liver microsomal stability in vitro, human; format: in vitro ADME; details: for half-life at 1 μM: pH 7.4, human liver microsomes 0.5 mg protein/mL, 1 μM test compound, 37° C., read-out: Human T1/2
Protocol: (§1) Evaluation of in vitro liver microsomal stability of the compound of the present disclosure was tested by the following method:
(§2) Buffer: 100 mM potassium phosphate buffer, pH 7.4; […] MgCl2.
(§3) Liver microsomes: human liver microsomes, Corning Cat No. 452117; Rat liver microsomes, Xenotech Cat No. R1000; Mouse liver microsomes, Xenotech Cat No. M1000; Dog liver microsomes, Xenotech Cat No. D1000; Liver microsomes of cynomolgus monkey, Corning Cat No. 452413, the final concentration was 0.5 mg protein/mL.
(§4) 1. Intermediate solution: 5 μL of compound or control in stock solution (10 mM) was diluted with 495 μL of methanol (concentration: 100 μM, 99% MeOH).
(§5) 2. Operating solution: the intermediate solution was diluted […] with 450 μL 100 mM potassium phosphate buffer (concentration: 10 μM, 9.9% MeOH).
(§6) 1. 10 μL of compound or control solution per well was added to all plates (T0, T5, T10, T20, T30, T60, NCF60) except matrix blank.
(§7) 2. Microsome solution was distributed to 96-well plates according to platemap for standby, 680 μL per well, and the mixture of microsome solution and the compound was incubated at 37° C. for about 10 minutes.
(§8) 4. After preheating, NADPH regeneration system was distributed to 96-well plate, 90 μL per well, for standby according to plate map, which was added to each plate to start the reaction, 10 μL per well. The final concentration of each component in the incubation medium includes: 0.5 mg protein/mL microsome, 1 μM test compound, […], 0.99% methanol and 0.01% DMSO.
(§9) 6. The above-prepared stop solution (4° C. cooling) was added to stop the reaction, 300 μL per well.
(§10) 9. During centrifugation, eight new 96-well plates were loaded with 300 μL of HPLC water, and then 100 μL of supernatant was transferred for mixing, followed by LC/MS/MS detection.
(§11) 10. Data analysis: The peak area of the corresponding compound and internal standard was detected by LC-MS/MS, and the T1/2 of the compound was calculated by the following formula: […]

[3] = Liver microsomal stability in vitro, dog; format: in vitro ADME; details: for half-life at 1 μM: pH 7.4, dog liver microsomes 0.5 mg protein/mL, 1 μM test compound, 37° C., read-out: Dog T1/2
Protocol: as §1, §2, §3, §4, §5, §6, §7, §8, §9, §10, §11

CYP2D6 = target: T1, CYP2D6 (Homo sapiens, UniProt P10635); test: Inhibition of human liver microsomal CYP450 enzymes, CYP2D6; format: in vitro ADME; details: human liver microsomes, substrate Bufuralol 10 μM; Reference = quinidine; read-out: IC50 2D6
T1 construct: from tissue; host or cells: human liver microsomes (HLM)
T1 sequence (P10635 whole entry): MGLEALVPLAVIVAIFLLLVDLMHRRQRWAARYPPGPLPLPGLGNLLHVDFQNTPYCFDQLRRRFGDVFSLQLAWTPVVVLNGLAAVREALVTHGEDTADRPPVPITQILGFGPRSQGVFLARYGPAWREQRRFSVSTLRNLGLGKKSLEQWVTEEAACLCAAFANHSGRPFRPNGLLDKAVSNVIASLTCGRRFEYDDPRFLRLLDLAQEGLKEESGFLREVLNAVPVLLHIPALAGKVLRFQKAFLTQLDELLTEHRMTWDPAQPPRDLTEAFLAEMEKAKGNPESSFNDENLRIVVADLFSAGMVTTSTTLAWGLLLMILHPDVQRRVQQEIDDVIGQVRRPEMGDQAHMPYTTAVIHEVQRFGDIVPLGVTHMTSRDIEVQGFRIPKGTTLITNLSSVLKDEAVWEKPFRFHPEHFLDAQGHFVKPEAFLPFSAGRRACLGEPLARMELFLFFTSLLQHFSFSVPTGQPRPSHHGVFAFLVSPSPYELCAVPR
Protocol: The inhibitory effects of the compound of the present disclosure on the CYP450 enzymes of six human subtypes were determined by the following experimental method:
Reference compounds of each subtype: CYP1A2: α-naphthoflavone; CYP2C9: sulfaphenazole; CYP2C19: omeprazole; CYP3A4: ketoconazole; CYP2D6: quinidine.
Substrate concentration: CYP1A2: Phenacetin at 30 μM; CYP2C9: Diclofenac at 10 μM; CYP2C19: S-Mephenytoin at 35 μM; CYP3A4: Midazolam at 5 μM and Testosterone at 80 μM; CYP2D6: Bufuralol at 10 μM.
6. 0.2 mg/mL of HLM was added to the test wells, 400 μL per well, and then the gradient diluted 400× test compound was added to the corresponding wells.
7. 0.2 mg/mL of HLM was added to the test wells, 200 μL per well, and then the gradient-diluted reference inhibitor was added to the corresponding wells. Steps 6 and 7 needed to be performed on ice.
8.1. 30 μL of test compound and reference compound were mixed in 0.2 mg/mL of HLM solution (see steps 6 and 7).
8.2. 15 μL of 4× substrate solution (see step 4) was added.
10. Preheated 8 mM of NADPH solution was added to the 96-well test plate (see step 3) to initiate the reaction, 15 μL per well.
11. The test plate was incubated at 37° C.: 3A4 for 5 minutes, each of 1A2, 2C9 and 2D6 for 10 minutes, and 2C19 for 45 minutes.
12. ACN containing internal reference was added to stop the reaction, 120 μL per well.
14. […]

[4] = SD rats, table head: Dose PO (10 mg/kg)
[5] = male, Sprague-Dawley, rat, plasma, po, 10 mg/kg, SD rats, PO 10 mg/kg
[6] = male, Sprague-Dawley, rat, in vivo, po, 10 mg/kg

Row | F [1, 6] [%] | T1/2 [1, 6] [h] | AUC [1, 6] [ng·h/mL] | MRT [1, 6] [h] | metabolic stability in human liver microsomes, in words ([2]; human liver microsomes) | metabolic stability in dog liver microsomes, in words ([3]; dog liver microsomes) | SMILES | F ([1]; SD rats, PO 10 mg/kg) [%] | CL [1, 4] [mL/min/kg] | Vdss [1, 4] [L/kg] | AUC [1, 5] [ng·h/mL] | Cmax ([1]; male, Sprague-Dawley, rat, plasma, po, 10 mg/kg, Cmax, SD rats, PO 10 mg/kg) [ng/mL] | MRT [1, 5] [h] | half-life ([1]; male, Sprague-Dawley, rat, plasma, po, 10 mg/kg, T1/2, SD rats, PO 10 mg/kg) [min] | half-life at 1 μM [2] [min] | half-life at 1 μM [3] [min] | IC50 (CYP2D6) [µM]
1 | – | – | – | – | – | – | NC(=O)c1cccc2cn(-c3ccc([C@@H]4CCCNC4)cc3)nc12 [Niraparib, reference compound] | 65.0 | 28.7 | 8.18 | 4540 | 509 | 8.59 | 204 | > 145 | 22.6 | > 10
2 | 49.7 | 16.0 | 3060 | 7.12 | excellent metabolic stability | excellent metabolic stability | NC(=O)c1cccc2cn(-c3ccc([C@]4(F)CCCNC4)cc3)nc12 (single isomer, unassigned) [Example 23, (R or S)-2-(4-(3-fluoropiperidin-3-yl)phenyl)-2H-indazole-7-carboxamide] | – | – | – | – | – | – | – | > 145 | 20.3 | > 10
